How the values were obtained:
EGFR = biological target: T1, EGFR (Homo sapiens, UniProt P00533); assay: EGFR substrate phosphorylation assay (HTRF); format: biochemical
T1 construct: made in house; host or cells: baculovirus expression system
Protocol: (§1) Compounds of the present invention were tested for EGFR and ErbB-2 protein tyrosine kinase inhibitory activity in substrate phosphorylation assays using enzymes purified from a baculovirus expression system. Reagent production was conducted essentially as described in Brignola, P. S., et al, (2002) J. Biol. Chem. 277(2):1576-1585.
(§2) The method measures the ability of the isolated enzyme to catalyse the transfer of the gamma-phosphate from ATP onto the tyrosine residue of a biotinylated synthetic peptide referenced “Peptide C” in Brignola, P. S., et al, (2002) J. Biol. Chem. 277(2):1576-1585. The extent of tyrosine phosphorylation was measured using an anti-phosphotyrosine antibody, and quantified by homogenous time-resolved fluorescence (HTRF).
(§3) Reactions were performed in black 384-well polystyrene flat-bottom plates in a final volume of 20 μL. Assays were performed by adding 10 μL of each of the following solutions, Substrate Mix and Enzyme Mix: The Substrate Mix contained 100 mM 3-[N-morpholino]propanesulfonic acid (MOPS) (pH 7.5), 2 mM MnCl2, 20 μM ATP, 0.01% Tween-20, 0.1 mg/mL (BSA), 0.8 uM peptide substrate, and 1 mM dithiothreitol. The Enzyme Mix contained 100 mM MOPS (pH7.5); 0.01% Tween-20; 0.1 mg/mL BSA, and either 0.8 nM EGFR, 10 nM ErbB2, or 1 nM ErbB4. The Enzyme Mix was added to the compound plates and the plates were incubated at 20° C. for 1 hr. The reactions were then started by adding the Substrate Mix.
(§4) After initiating the reaction with the method described above, the reactions were allowed to proceed for 90 minutes at 20° C. The reactions were then terminated by the addition of 20 μL 100 mM EDTA to each well. 40 μL/well of HTRF detection mix were added to the assay plates. The final concentrations of the detection reagents were: 100 mM HEPES (pH7.5), 0.1 mg/mL BSA, 15 nM streptavidin-labeled allophycocyanin (PerkinElmer), and 1 nM europium-labeled anti-phosphotyrosine antibody (Perkin Elmer). Assay plates were left unsealed and were counted in a Wallac Multilabel Counter 1420 (PerkinElmer).
(§5) Compounds under analysis were dissolved in dimethylsulfoxide (DMSO) to 1.0 mM and serially diluted 1 to 3 with DMSO through twelve dilutions. 1 μL of each concentration was transferred to the corresponding well of an assay plate. This creates a final compound concentration range from 0.00027 to 47.6 μM.
(§6) The data for dose responses were plotted as % Inhibition calculated with the data reduction formula 100*(1-(U1−C2)/(C1−C2)) versus concentration of compound where U1 is the unknown value, C1 is the average control value obtained for 4.76% DMSO, and C2 is the average control value obtained for 0.035 M EDTA. Data were fitted with a curve described by:
(§7) where Vmax is the upper asymptote, Y2 is the Y intercept, and K is the IC50. The results for each compound were recorded as pIC50s, calculated as follows: […]

SK-MEL-28 tumor cells = assay: Cell growth inhibition assay (CellTiter-Glo), SK-MEL-28; format: cell-based, Human; conditions: Homo sapiens, SK-MEL-28, 72 h; 3 days incubation
Protocol: (§8) Human breast tumor cells (BT474) were cultured in RPMI (Mediatech […]), containing 10% FBS (JRH Biosciences 12176) and 1% penicillin-streptomycin (Invitrogen 15140). Human head and neck tumor cells (HN5) were cultured in high glucose DMEM (Mediatech 50-013-PB) containing 10% FBS and 1% penicillin-streptomycin. Human colon tumor cells (Colo205) were cultured in RPMI (Mediatech 50-020-PB) containing 10% FBS and 1% penicillin-streptomycin. Human melanoma cancer cells (SK-MEL-28) were cultured in EMEM with nonessential amino acids (Mediatech 50-011-PB) containing 10% FBS, 1% sodium pyruvate (JT Baker 3354-04), and 1% penicillin-streptomycin. Human melanoma cancer cells (A375P F11s) were cultured in RPMI (Mediatech 50-020-PB) containing 10% FBS, 1% sodium pyruvate, and 1% penicillin-streptomycin. Human colon cancer cells (HT-29) were cultured in high glucose DMEM (Mediatech 50-013-PB) containing 10% FBS and 1% penicillin-streptomycin. Human melanoma cancer cells (SK-MEL-3) were cultured in McCoy's 5A (50-025-PB) containing 15% FBS, and 1% penicillin-streptomycin. All cell lines were maintained at 37° C. in a humidified 5% CO2, 95% air incubator. Cells were harvested using trypsin/EDTA (Invitrogen 25200), counted using a haemocytometer, and plated. For 96-well assays (using white full-area NUNC plates cat. #136102), cells were plated in 105 μL at the following densities (cells/well): HNS, 500; Colo 205, 500; SK-MEL-28, 500; A375P F11s, 500; HT-29, 500; SK-MEL-3, 500; and BT474, 3000. For 384-well assays (white full-area NUNC plates, cat. #781080), cells were plated in 48 μL at the following densities (cells/well): HNS, 500; Colo205, 500; SK-MEL-28, 500; A375P F11s, 500; HT-29, 500; SK-MEL-3, 500; and BT474, 2000.
(§9) The next day, compounds were diluted as follow: For 96-well assays, 13.5 μL of compound in DMSO were diluted using nine (9) serial 1:3 dilutions of 4.5 μL in 9 of DMSO. Medium (270 μL/well of RPMI with 10% FBS and 1% penicillin-streptomycin) was added to the plates. Aliquots (7 μL) were added to cells in the final assay giving a final DMSO concentration of 0.2%. For 384-well assays, 15 μL of compound in DMSO were diluted using nine (9) serial 1:3 dilutions of 5 μL in 10 μL of DMSO, followed by a further dilution of 5 μL of compound with 95 μL of medium, of which 2 μL were added to cells in the final assay giving a final DMSO concentration of 0.2%. Cells were incubated at 37° C., 5% CO2 for 3 days.
(§10) Total ATP was measured (as a surrogate estimate of cell number) using CellTiter-Glo® reagent (Promega G7571). Briefly, plates were removed from the incubator and allowed to equilibrate to room temperature for 30 minutes. CellTiter-Glo® (25 μL or 55 μL for 384-well or 96-well assays, respectively) reagent was added to each well and plates were shaken on an orbital plate shaker for 2 minutes. Plates were incubated without shaking for a further 30 minutes and read on an LJL Analyst GT reader in luminometer mode with an integration time of 0.5 seconds per well. Percent inhibition of cell growth was calculated relative to DMSO vehicle-treated control wells. Concentration of compound required to give 50% inhibition of vehicle-treated control cell growth (IC50) was interpolated using a 4-parameter fit for determining IC50 using the following equation: Y=A +((B−A)/(1+((C/X)̂D))) where […].

ErbB2 = biological target: T2, ErbB2 (Homo sapiens, UniProt P04626); assay: ErbB-2 substrate phosphorylation assay (HTRF); format: biochemical
T2 construct: made in house; host or cells: baculovirus expression system
T2 sequence (P04626 23-1255): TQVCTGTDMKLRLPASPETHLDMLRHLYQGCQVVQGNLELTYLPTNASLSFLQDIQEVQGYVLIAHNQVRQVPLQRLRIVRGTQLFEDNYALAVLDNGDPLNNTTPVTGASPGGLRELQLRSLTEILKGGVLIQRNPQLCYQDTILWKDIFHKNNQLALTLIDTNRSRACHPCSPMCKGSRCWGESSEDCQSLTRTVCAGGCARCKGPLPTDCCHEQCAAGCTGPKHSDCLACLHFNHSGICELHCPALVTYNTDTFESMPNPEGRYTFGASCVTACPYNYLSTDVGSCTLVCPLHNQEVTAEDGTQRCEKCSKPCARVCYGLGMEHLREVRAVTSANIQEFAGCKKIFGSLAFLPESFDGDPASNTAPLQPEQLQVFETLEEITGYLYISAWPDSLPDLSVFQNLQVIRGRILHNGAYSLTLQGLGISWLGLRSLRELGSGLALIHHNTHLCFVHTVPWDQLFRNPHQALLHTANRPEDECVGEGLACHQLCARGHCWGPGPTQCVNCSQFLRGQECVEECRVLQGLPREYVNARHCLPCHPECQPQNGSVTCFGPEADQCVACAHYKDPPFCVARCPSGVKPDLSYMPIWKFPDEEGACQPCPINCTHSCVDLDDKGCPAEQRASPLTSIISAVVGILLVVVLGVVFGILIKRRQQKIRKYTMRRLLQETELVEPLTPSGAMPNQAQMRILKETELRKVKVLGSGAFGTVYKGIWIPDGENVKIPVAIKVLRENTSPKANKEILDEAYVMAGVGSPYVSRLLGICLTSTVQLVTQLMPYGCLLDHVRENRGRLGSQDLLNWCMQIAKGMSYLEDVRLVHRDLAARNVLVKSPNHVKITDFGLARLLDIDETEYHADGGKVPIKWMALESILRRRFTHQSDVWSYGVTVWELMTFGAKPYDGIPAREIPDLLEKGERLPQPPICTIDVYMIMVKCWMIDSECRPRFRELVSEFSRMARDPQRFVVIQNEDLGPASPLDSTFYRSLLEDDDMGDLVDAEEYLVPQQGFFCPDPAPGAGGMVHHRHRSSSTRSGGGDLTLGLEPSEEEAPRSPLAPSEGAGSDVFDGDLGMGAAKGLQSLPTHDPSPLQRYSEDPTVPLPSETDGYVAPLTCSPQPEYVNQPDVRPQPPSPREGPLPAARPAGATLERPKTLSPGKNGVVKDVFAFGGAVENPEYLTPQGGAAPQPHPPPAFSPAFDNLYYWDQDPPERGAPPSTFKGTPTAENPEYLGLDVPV
Protocol: as §1, §2, §3, §4, §5, §6, §7

Colo205 tumor cells = assay: Cell growth inhibition assay (CellTiter-Glo), Colo205; format: cell-based, Human; conditions: Homo sapiens, COLO 205, 72 h; 3 days incubation
Protocol: as §8, §9, §10

B-Raf = B-Raf (Homo sapiens, UniProt P15056); assay: B-Raf Accelerated MEK ATPase assay (BRAMA), Method A or B; format: biochemical; conditions: Method B: final MEK 150 nM, single end point read
Sequence of B-Raf (P15056 whole entry): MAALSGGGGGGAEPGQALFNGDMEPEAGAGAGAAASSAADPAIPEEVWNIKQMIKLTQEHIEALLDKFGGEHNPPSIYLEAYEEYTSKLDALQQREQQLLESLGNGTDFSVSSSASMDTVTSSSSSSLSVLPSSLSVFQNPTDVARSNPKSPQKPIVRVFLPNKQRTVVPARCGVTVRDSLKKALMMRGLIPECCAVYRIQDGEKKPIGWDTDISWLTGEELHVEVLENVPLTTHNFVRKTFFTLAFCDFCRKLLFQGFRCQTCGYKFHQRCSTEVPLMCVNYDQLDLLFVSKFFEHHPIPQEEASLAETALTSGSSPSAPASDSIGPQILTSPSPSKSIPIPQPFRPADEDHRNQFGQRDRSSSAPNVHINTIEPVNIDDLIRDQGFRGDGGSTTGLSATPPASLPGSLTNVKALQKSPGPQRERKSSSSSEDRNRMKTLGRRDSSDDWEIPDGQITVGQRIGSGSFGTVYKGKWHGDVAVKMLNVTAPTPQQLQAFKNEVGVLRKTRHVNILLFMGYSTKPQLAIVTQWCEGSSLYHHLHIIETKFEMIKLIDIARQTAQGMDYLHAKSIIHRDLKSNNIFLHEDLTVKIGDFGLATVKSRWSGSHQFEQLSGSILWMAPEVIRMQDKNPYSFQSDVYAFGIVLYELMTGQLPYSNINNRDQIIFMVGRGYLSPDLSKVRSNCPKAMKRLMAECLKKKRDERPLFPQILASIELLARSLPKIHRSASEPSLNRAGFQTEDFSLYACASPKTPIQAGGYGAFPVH
Protocol: Compounds of the present invention were tested for B-Raf protein serine kinase inhibitory activity in a B-Raf Accelerated MEK ATPase assay (BRAMA). The BRAMA assay is a high sensitivity assay which measures an intrinsic MEK-mediated ATP hydrolysis uncoupled from downstream ERK phosphorylation by coupling the formation of ADP to NADH oxidation through the enzymes pyruvate kinase and lactate dehydrogenase. When ADP production is initiated by addition of catalytic amounts of an activated Raf enzyme and non-phosphorylated MEK, one observes robust ADP production concomitant with Raf-mediated phosphorylation of MEK.
Method A: Specific details of the assay are disclosed in: C. Rominger, M. Schaber, E. May. Assay for B-Raf Activity Based on Intrinsic MEK ATPase Activity. Statutory Invention Registration 11/084,993 (March, 2005). Method B: The method is the same as method A, but includes the following changes: 1) the assay was performed with a final MEK concentration of 150 nM and 2) the assay was read as single end point instead of a kinetic read.

T1 sequence (P00533 25-1210): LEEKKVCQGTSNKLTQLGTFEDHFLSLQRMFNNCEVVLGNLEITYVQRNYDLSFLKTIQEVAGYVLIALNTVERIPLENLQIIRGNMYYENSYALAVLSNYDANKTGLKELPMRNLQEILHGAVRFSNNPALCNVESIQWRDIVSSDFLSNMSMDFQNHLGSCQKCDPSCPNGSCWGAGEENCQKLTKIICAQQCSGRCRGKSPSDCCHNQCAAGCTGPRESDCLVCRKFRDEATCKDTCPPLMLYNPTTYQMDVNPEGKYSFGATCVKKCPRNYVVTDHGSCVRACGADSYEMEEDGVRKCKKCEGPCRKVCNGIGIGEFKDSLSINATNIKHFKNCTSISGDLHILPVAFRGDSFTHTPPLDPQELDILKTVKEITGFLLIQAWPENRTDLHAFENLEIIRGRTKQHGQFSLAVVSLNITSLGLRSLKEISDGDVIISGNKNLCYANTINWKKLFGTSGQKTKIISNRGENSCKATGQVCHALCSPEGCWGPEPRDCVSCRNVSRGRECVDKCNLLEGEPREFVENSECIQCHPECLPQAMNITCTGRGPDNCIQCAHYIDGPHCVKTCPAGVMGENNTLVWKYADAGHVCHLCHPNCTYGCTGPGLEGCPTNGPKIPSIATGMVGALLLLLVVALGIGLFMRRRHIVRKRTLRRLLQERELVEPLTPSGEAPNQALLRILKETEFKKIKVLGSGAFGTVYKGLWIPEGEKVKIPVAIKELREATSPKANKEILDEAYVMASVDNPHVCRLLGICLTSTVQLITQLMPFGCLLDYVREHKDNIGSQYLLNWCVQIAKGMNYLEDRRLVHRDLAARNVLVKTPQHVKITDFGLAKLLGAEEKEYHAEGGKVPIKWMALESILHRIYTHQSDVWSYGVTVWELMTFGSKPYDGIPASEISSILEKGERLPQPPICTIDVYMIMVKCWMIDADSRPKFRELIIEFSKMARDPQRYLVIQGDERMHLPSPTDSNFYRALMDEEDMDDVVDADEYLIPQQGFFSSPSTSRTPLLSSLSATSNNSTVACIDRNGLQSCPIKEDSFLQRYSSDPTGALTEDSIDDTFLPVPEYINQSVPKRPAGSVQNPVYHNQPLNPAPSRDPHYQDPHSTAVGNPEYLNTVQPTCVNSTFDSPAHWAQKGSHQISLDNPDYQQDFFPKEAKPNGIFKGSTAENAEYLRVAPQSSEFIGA

| SMILES | IC50 (EGFR) [nM] | IC50 (SK-MEL-28 tumor cells) [nM] | IC50 (ErbB2) [nM] | IC50 (Colo205 tumor cells) [nM] | IC50 (B-Raf) [nM] |
| --- | --- | --- | --- | --- | --- |
| CC(C)c1nc(-c2cccc(NS(=O)(=O)Cc3ccccc3)c2)c(-c2ccnc(Nc3ccc(N4CCOCC4)c(F)c3)n2)s1 [Example 86] | > 1000 | > 1000 | > 1000 | > 1000 | 100 to 1000 |
| Nc1nc(-c2ccc(F)c(NS(=O)(=O)c3c(F)cccc3F)c2)c(-c2ccnc(Nc3ccc(N4CCOCC4)nc3)n2)s1 [Example 64] | 100 to 1000 | > 1000 | < 100 | > 1000 | < 100 |
| COc1cc(N2CCN(CCS(C)(=O)=O)CC2)c(C)cc1Nc1nccc(-c2sc(C(C)C)nc2-c2cncc(NS(=O)(=O)c3c(F)cccc3F)c2)n1 [Example 48] | > 1000 | 100 to 1000 | < 100 | < 100 | 100 to 1000 |
| CCc1nc(-c2cccc(CNS(=O)(=O)c3ccccc3)c2)c(-c2ccnc(Nc3ccc(N4CCN(C(C)=O)CC4)nc3)n2)s1 [Example 68] | 100 to 1000 | > 1000 | 100 to 1000 | > 1000 | 100 to 1000 |
| COc1cc(N2CCC(CCS(C)(=O)=O)CC2)c(C)cc1Nc1nccc(-c2sc(C(C)C)nc2-c2ccnc(NS(=O)(=O)c3c(F)cccc3F)c2)n1 [Example 108] | > 1000 | > 1000 | > 1000 | 100 to 1000 | < 100 |
| COc1ccc(S(=O)(=O)Nc2cccc(-c3nc(C(C)C)sc3-c3ccnc(Nc4ccc(N5CCOCC5)nc4)n3)c2)cc1OC [Example 104] | > 1000 | > 1000 | > 1000 | 100 to 1000 | 100 to 1000 |
| COc1c(Nc2nccc(-c3sc(C(C)C)nc3-c3cccc(NS(=O)(=O)c4c(F)cccc4F)c3)n2)ccc(N2CCN(CCS(C)(=O)=O)CC2)c1C [Example 90] | > 1000 | 100 to 1000 | > 1000 | 100 to 1000 | < 100 |

More lines, now with the values ahead:

| IC50 (EGFR) [nM] | IC50 (SK-MEL-28 tumor cells) [nM] | IC50 (ErbB2) [nM] | IC50 (Colo205 tumor cells) [nM] | IC50 (B-Raf) [nM] | SMILES |
| --- | --- | --- | --- | --- | --- |
| > 1000 | < 100 | > 1000 | 100 to 1000 | < 100 | O=S(=O)(Nc1cccc(-c2nc(-c3ccc(F)c(Cl)c3)sc2-c2ccnc(Nc3ccc(N4CCOCC4)nc3)n2)c1F)c1c(F)cccc1F [Example 143] |
| < 100 | < 100 | < 100 | < 100 | < 100 | COc1cc(OC2CCN(CCS(C)(=O)=O)CC2)c(C)cc1Nc1nccc(-c2sc(C(C)C)nc2-c2cccc(NS(=O)(=O)c3c(F)cccc3F)c2)n1 [Example 158] |
| 100 to 1000 | < 100 | 100 to 1000 | < 100 | < 100 | COc1cc(OCCN2CCOCC2)c(C)cc1Nc1nccc(-c2sc(C(C)C)nc2-c2cccc(NS(=O)(=O)c3c(F)cccc3F)c2F)n1 [Example 171] |
| < 100 | 100 to 1000 | < 100 | 100 to 1000 | 100 to 1000 | COc1cc(N2CCN(CCS(C)(=O)=O)CC2)c(C)cc1Nc1nccc(-c2scnc2-c2cccc(NS(=O)(=O)c3c(F)cccc3F)c2)n1 [Example 163] |
| < 100 | < 100 | < 100 | 100 to 1000 | < 100 | COc1cc(N2CCN(CCS(C)(=O)=O)CC2)c(C)cc1Nc1nccc(-c2sc(C(C)C)nc2-c2cccc(NS(=O)(=O)c3c(F)cccc3F)c2F)n1 [Example 125] |
| < 100 | 100 to 1000 | < 100 | < 100 | 100 to 1000 | COc1cc(N2CCN(CCS(C)(=O)=O)CC2)c(C)cc1Nc1nccc(-c2sc(CC(C)C)nc2-c2cccc(NS(=O)(=O)c3c(F)cccc3F)c2)n1 [Example 161] |
| < 100 | < 100 | < 100 | < 100 | < 100 | COc1cc(N2CCN(CCS(C)(=O)=O)CC2)c(C)cc1Nc1nccc(-c2sc(C3CCOCC3)nc2-c2cccc(NS(=O)(=O)c3c(F)cccc3F)c2F)n1 [Example 177] |
| < 100 | 100 to 1000 | < 100 | < 100 | < 100 | CCNc1nc(-c2cccc(NS(=O)(=O)c3c(F)cccc3F)c2)c(-c2ccnc(Nc3cc(C)c(N4CCN(CCS(C)(=O)=O)CC4)cc3OC)n2)s1 [Example 153] |
| > 1000 | < 100 | > 1000 | < 100 | < 100 | COc1ccc(S(C)(=O)=O)cc1Nc1nccc(-c2sc(N3CCOCC3)nc2-c2cccc(NS(=O)(=O)c3c(F)cccc3F)c2Cl)n1 [Example 164] |

From patent US20110319392A1, “Thiazole Sulfonamide And Oxazole Sulfonamide Kinase Inhibitors” (priority 2009, published 2011)
